Measured values: BindingDB's records for PubMed 1652050 (Seattle Veterans Affairs Medical Center, 1991)
Values joined by “and” are separate entries in the source; they are usually repeats but may differ in a detail not shown here. Equal entries are not always repeated.

What follows are compounds tested against 5-hydroxytryptamine receptor 1D (Homo sapiens, UniProt P28221).
5-hydroxytryptamine receptor 1D, sequence (P28221 whole entry): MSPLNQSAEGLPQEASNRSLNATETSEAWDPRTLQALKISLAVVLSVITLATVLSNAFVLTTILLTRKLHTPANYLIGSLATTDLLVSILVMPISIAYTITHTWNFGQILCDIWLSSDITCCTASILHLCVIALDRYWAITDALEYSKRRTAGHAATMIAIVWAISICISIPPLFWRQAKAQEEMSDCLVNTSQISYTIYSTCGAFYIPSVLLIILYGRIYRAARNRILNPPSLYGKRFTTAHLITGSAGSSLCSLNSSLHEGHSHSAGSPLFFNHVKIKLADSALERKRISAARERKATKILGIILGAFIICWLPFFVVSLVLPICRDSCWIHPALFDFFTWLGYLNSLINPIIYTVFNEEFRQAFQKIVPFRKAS
Compound `CN1C[C@H](CNC(=O)OCc2ccccc2)C[C@@H]2c3cccc4c3c(cn4C)C[C@H]21` [METERGOLINE] has a Ki of 0.61 nM.
For `CN1CC(C(=O)N[C@]2(C)O[C@@]3(O)C4CCCN4C(=O)[C@H](Cc4ccccc4)N3C2=O)CC2c3cccc4[nH]cc(c34)CC21` (stereo partly drawn) [7-Methyl-4,6,6a,7,8,9,10,10a-octahydro-indolo[4,3-fg]quinoline-9-carboxylic acid ((2R,5S,10bS)-5-benzyl-10b-hydroxy-2-methyl-3,6-dioxo-octahydro-oxazolo[3,2-a]pyrrolo[2,1-c]pyrazin-2-yl)-amide], the Ki was 0.13 nM.
In the case of `O=C(CCCN1CCC2(CC1)C(=O)NCN2c1ccccc1)c1ccc(F)cc1` [8-[4-(4-fluorophenyl)-4-oxidanylidene-butyl]-1-phenyl-1,3,8-triazaspiro[4.5]decan-4-one], the Ki is reported as 3100 nM.
Work on `CSc1ccc2c(c1)C(N1CCN(C)CC1)Cc1ccccc1S2` (centres undefined) [methanesulfonic acid;1-methyl-4-(3-methylsulfanyl-5,6-dihydrobenzo[b][1]benzothiepin-5-yl)piperazine] yielded a Ki of 5.8 nM.
`CC(C)(C)NCC(O)COc1cccc2[nH]c(C#N)cc12` (centres undefined) [NSC_155346] gave a Ki of 85 nM.
`COC(=O)[C@@H]1[C@H]2C[C@H]3c4[nH]c5ccccc5c4CCN3C[C@@H]2CC[C@@H]1O` [yohimbic acid methyl ester] was tested, and the Ki was 59 nM and 51 nM.
In the case of `CN1C2CCC1CC(OC(=O)c1c[nH]c3ccccc13)C2` (centres undefined), the Ki is reported as greater than 10000 nM.
Work on `Clc1cccc(N2CCNCC2)c1` [mCPP] yielded a Ki of 210 nM.
For `CN1C[C@@H](NS(=O)(=O)N(C)C)C[C@@H]2c3cccc4c3c(cn4C)C[C@H]21` [MESULERGINE], the Ki was 1700 nM.
